Data from ChEMBL document CHEMBL1132641, “Structure-activity relationships for a class of inhibitors of purine nucleoside phosphorylase” (J Med Chem, 1999).

Assays:
Experiment in all cases: biochemical
[1] = target: T1, Purine nucleoside phosphorylase (Bos taurus, UniProt P55859)
T1 sequence (P55859 whole entry): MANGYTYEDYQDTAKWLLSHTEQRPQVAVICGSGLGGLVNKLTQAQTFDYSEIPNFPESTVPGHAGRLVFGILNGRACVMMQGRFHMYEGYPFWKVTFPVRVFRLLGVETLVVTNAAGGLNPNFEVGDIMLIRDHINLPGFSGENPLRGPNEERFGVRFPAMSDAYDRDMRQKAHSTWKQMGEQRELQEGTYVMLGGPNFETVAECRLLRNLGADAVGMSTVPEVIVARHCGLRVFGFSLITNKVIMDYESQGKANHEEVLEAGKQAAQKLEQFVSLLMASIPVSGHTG
Description: (§1) Inhibitory activity against calf spleen purine nucleoside phosphorylase (PNP) using inosine as substrate at a concentration of 10 uM.

[2] = target: T1, Purine nucleoside phosphorylase; remark: listed apart in the source
Description: as §1

[3] = target: T1, Purine nucleoside phosphorylase; remark: listed apart in the source
Description: Inhibitory activity against calf spleen purine nucleoside phosphorylase (PNP) using 2-amino-6-mercapto-7-methyl purine ribonucleoside (MESG) as substrate.

Ki [1] [nM] | IC50 [2] [nM] | Ki [3] [nM] | Structure (SMILES)
885 | 1470 | 766 | Nc1nc(O)c2[nH]c(N)c(CC3CCCCC3)c2n1
84 | 182 | 31.8 | Nc1nc2c(Cc3ccccc3O)c[nH]c2c(=O)[nH]1
10300 | 20200 | 67500 | Cc1nc2c(O)[nH]c(N)nc-2c1Cc1ccccc1
18.7 | 24.5 | 5.4 | Oc1[nH]cnc2c(Cc3ccccc3)cnc1-2
109 | 239 | 35 | Nc1nc(O)c2[nH]cc(Cc3ccc(O)cc3)c2n1
– | 16.3 | 4.6 | N#CCC(c1cccc(Cl)c1)c1c[nH]c2c(=O)[nH]c(N)nc12 (centres undefined)
65 | 103 | 14.4 | Nc1nc(O)c2[nH]cc(Cc3ccccc3Cl)c2n1
– | 96.6 | – | CC(C)c1ccc(Cc2c[nH]c3c(=O)[nH]c(N)nc23)cc1

Continued, compound first:

Structure (SMILES) | Ki [1] [nM] | IC50 [2] [nM] | Ki [3] [nM]
Nc1nc(O)c2nc(N)n(Cc3cccs3)c2n1 | 35.7 | 69.4 | 20.7
Nc1nc(O)c2[nH]cc(C3=CCCCC3)c2n1 | 862 | 1970 | 500
Nc1nc2c(Cc3cccc(Cl)c3)c[nH]c2c(=O)[nH]1 | 18.9 | 25.8 | 4.3
Nc1nc2c(Cc3ccccn3)c[nH]c2c(=O)[nH]1 | – | 15.3 | –
Oc1ncn(Cc2ccccc2)c2ncnc1-2 | 24600 | 49600 | –
Nc1nc(O)c2[nH]cc(C3CCCCC3)c2n1 | 335 | 640 | 333
Nc1nc2c(CC3CCCS3)c[nH]c2c(=O)[nH]1 (centres undefined) | 8.5 | 17.4 | 6
CC1CCCC(Cc2c[nH]c3c(=O)[nH]c(N)nc23)C1 (centres undefined) | 11.4 | 19.2 | 3.3
Nc1nc2c(CC3CCCC3)c[nH]c2c(=O)[nH]1 | 9.1 | 20.2 | 6.2
Nc1nc2c(Cc3cnccc3Cl)c[nH]c2c(=O)[nH]1 | 66.7 | 135 | 35.6
Nc1nc(O)c2[nH]cc(C(CC(=O)O)c3ccccc3)c2n1 (centres undefined) | 9 | 46.8 | 61
Nc1nc2c(Cc3ccc(-c4ccccc4)cc3)c[nH]c2c(=O)[nH]1 | – | 546 | –
Nc1nc(O)c2[nH]cc(Cc3ccsc3)c2n1 | 15.6 | 22.6 | 3.5
Nc1nc2c(Cc3ccncc3)c[nH]c2c(=O)[nH]1 | 25.4 | 63.5 | 16.9
Nc1nc(O)c2[nH]cc(Oc3ccccc3)c2n1 | – | 41.5 | –
Nc1nc2c(Cc3ccc(OCc4ccccc4)cc3)c[nH]c2c(=O)[nH]1 | 37.8 | 124 | 20.3
N#CCC(c1cccnc1)c1cnc2c(O)[nH]cnc1-2 (centres undefined) | – | 38.9 | –
Nc1nc2[nH]c(N)nc2c(=O)[nH]1 [8-AMINOGUANINE] | 982 | 2300 | 681
Nc1nc2c(Cc3cccnc3)c[nH]c2c(=O)[nH]1 [PELDESINE] | 13.5 | 27 | 3.1
